Experimental data: ChEMBL document CHEMBL3779781, “New direct inhibitors of InhA with antimycobacterial activity based on a tetrahydropyran scaffold” (Eur J Med Chem, 2016)

Key:
[1] = tested on: Mycobacterium tuberculosis; experiment: Ratio of MIC for isoniazid resistant Mycobacterium tuberculosis H37Rv clinical isolate 6 harboring InhA promoter C-15T mutant to MIC for Mycobacterium tuberculosis H37Rv; format: functional
[2] = tested on: Mycobacterium tuberculosis; experiment: Antimycobacterial activity against isoniazid resistant Mycobacterium tuberculosis H37Rv clinical isolate 3 harboring InhA promoter C-15T mutant; format: functional, H37Rv isolate 3
[3] = tested on: Mycobacterium tuberculosis; experiment: Antimycobacterial activity against isoniazid resistant Mycobacterium tuberculosis H37Rv clinical isolate 6 harboring InhA promoter C-15T mutant; format: functional, H37Rv isolate 6
[4] = tested on: Mycobacterium tuberculosis; experiment: Ratio of MIC for isoniazid resistant Mycobacterium tuberculosis H37Rv clinical isolate 7 harboring katG S315T mutant to MIC for Mycobacterium tuberculosis H37Rv; format: functional
[5] = tested on: Mycobacterium tuberculosis; experiment: Ratio of MIC for isoniazid resistant Mycobacterium tuberculosis H37Rv clinical isolate 5 harboring katG S315T mutant to MIC for Mycobacterium tuberculosis H37Rv; format: functional
[6] = tested on: Mycobacterium tuberculosis; experiment: Antimycobacterial activity against isoniazid resistant Mycobacterium tuberculosis H37Rv clinical isolate 2 harboring InhA promoter C-15T mutant; format: functional, H37Rv isolate 2
[7] = tested on: Mycobacterium tuberculosis; experiment: Ratio of MIC for isoniazid resistant Mycobacterium tuberculosis H37Rv clinical isolate 4 harboring katG S315T mutant to MIC for Mycobacterium tuberculosis H37Rv; format: functional
[8] = tested on: Mycobacterium tuberculosis; experiment: Ratio of MIC for isoniazid resistant Mycobacterium tuberculosis H37Rv clinical isolate 1 harboring katG S315T mutant to MIC for Mycobacterium tuberculosis H37Rv; format: functional
[9] = tested on: Mycobacterium tuberculosis; experiment: Antimycobacterial activity against isoniazid resistant Mycobacterium tuberculosis H37Rv clinical isolate 4 harboring katG S315T mutant; format: functional, H37Rv isolate 4
[10] = tested on: Mycobacterium tuberculosis; experiment: Ratio of MIC for isoniazid resistant Mycobacterium tuberculosis H37Rv clinical isolate 2 harboring InhA promoter C-15T mutant to MIC for Mycobacterium tuberculosis H37Rv; format: functional
[11] = tested on: Mycobacterium tuberculosis; experiment: Ratio of MIC for isoniazid resistant Mycobacterium tuberculosis H37Rv clinical isolate 3 harboring InhA promoter C-15T mutant to MIC for Mycobacterium tuberculosis H37Rv; format: functional
[12] = tested on: Mycobacterium tuberculosis; experiment: Antimycobacterial activity against isoniazid resistant Mycobacterium tuberculosis H37Rv clinical isolate 7 harboring katG S315T mutant; format: functional, H37Rv isolate 7
[13] = tested on: Mycobacterium tuberculosis; experiment: Antimycobacterial activity against isoniazid resistant Mycobacterium tuberculosis H37Rv clinical isolate 5 harboring katG S315T mutant; format: functional, H37Rv isolate 5
[14] = tested on: Mycobacterium tuberculosis; experiment: Antimycobacterial activity against isoniazid resistant Mycobacterium tuberculosis H37Rv clinical isolate 1 harboring katG S315T mutant; format: functional, H37Rv isolate 1

Compound	Ratio [1]	MIC [2]	MIC [3]	Ratio [4]	Ratio [5]	MIC [6]	Ratio [7]	Ratio [8]	MIC [9]	Ratio [10]	Ratio [11]	MIC [12]	MIC [13]	MIC [14]
NNC(=O)c1ccncc1 [ISONIAZID]	3.1	1.56 µg/mL	1.56 µg/mL	400	25	3.1 µg/mL	50	100	25 µg/mL	6.25	3.1	200 µg/mL	12.5 µg/mL	50 µg/mL
Cc1cc(C)n(Cc2ccc(C(=O)NCC3(c4nc(-c5ccccc5)cs4)CCOCC3)cc2)n1	8	62.5 µM	62.5 µM	2	8	62.5 µM	1	2	7.8 µM	8	8	15.6 µM	62.5 µM	15.6 µM
